system: TNF-α; test: Cytokine inhibitory activity in cells: LPS-induced TNF-α in RAW 264.7; assay type: cell-based, murine; settings: Mus musculus, RAW264.7; RAW 264.7, LPS 1 μg/mL; test conc. 1 μM; read-out: TNF-α Inhibition Rate (%)
Protocol: General reagents used were purchased from Sigma-Aldrich chem. Co. and cytokine inhibitory activities were tested as follows. Mediums and reagents used in cell culture were purchased from GIBCO BRL (USA), and mouse TNF-α ELISA kit was purchased from R&D system (USA). The apparatus used ELISA reader (Spectra max-Plus 384, Molecular Device, USA).
Murine macrophage cell line RAW 264.7 was kindly provided by Korean Tissue Culture Center (KTCC). The cell line was cultured in DMEM medium containing 10% FBS, in a cell culturing device at the condition of 37° C., 5% CO2. First, murine RAW 264.7 was cultured in DMEM medium containing 10% FBS for about 24 hours, and cells were planted 200 μL each in 96 well plates at the concentration of 5×10^5/mL and cultured for about 24 hours. Then, test compounds were treated at various concentrations and then reacted at 37° C. for about 1 hour, wherein 1 μg/mL of lipopolysaccharide (LPS) was added thereto and reacted at 37° C. for about 12 hours. The supernatant was recovered and the amount of murine TNF-α on the medium was quantitated using ELISA kit. Thalidomide was respectively used as a positive and a negative control to compare the activities and the results are shown in the following tables 4a -4c.

| Structure (SMILES) | inhibition at 1 µM [%] |
| --- | --- |
| Cc1ncc2c(c1-c1ccccc1)CCOC2=O [Ex. 62, 6-methyl-5-phenyl-3,4-dihydro-pyrano[3,4-c]pyridine-1-on] | 60 |
| Cc1cc2c(c(Oc3ccccc3)n1)C(=O)OCC2 [Ex. 50, 6-methyl-8-phenoxy-3,4-dihydro-pyrano[3,4-c]pyridine-1-on] | 5 |
| Cc1cc2c(c(-c3ccccc3)n1)C(=O)OCC2 [Ex. 46, 6-methyl-8-phenyl-3,4-dihydro-pyrano[3,4-c]pyridine-1-on] | 3 |
| Cc1nc(Cl)c2c(c1-c1ccccc1)CCOC2=O [Ex. 61, 8-chloro-6-methyl-5-phenyl-3,4-dihydro-pyrano[3,4-c]pyridine-1-on] | 87 |
| Cc1ccc(Nc2nc(C)cc3c2C(=O)OCC3)cc1 [Ex. 39, 6-methyl-8-p-tolylamino-3,4-dihydro-pyrano[3,4-c]pyridine-1-on] | 9 |
| Cc1cc2c(c(-c3ccc(Cl)cc3)n1)C(=O)OCC2 [Ex. 31, 8-(4-chloro-phenyl)-6-methyl-3,4-dihydro-pyrano[3,4-c]pyridine-1-on] | 100 |
| Cc1cc2c(c(Nc3ccc(Cl)cc3)n1)C(=O)OCC2 [Ex. 37, 8-(4-chloro-phenylamino)-6-methyl-3,4-dihydro-pyrano[3,4-c]pyridine-1-on] | 54 |
| Cc1cc2c(c(-c3ccco3)n1)C(=O)OCC2 [Ex. 27, 6-methyl-8-furan-2-yl-3,4-dihydro-pyrano[3,4-c]pyridine-1-on] | 30 |
| Cc1cc2c(c(N3CCN(C)CC3)n1)C(=O)OCC2 [Ex. 34, 6-methyl-8-(4-methyl-piperazine-1-yl)-3,4-dihydro-pyrano[3,4-c]pyridine-1-on] | 58 |

same assay, conditions: Mus musculus, RAW264.7; RAW 264.7, LPS 1 μg/mL; test conc. 10 μM; read-out: TNF-α Inhibition Rate (%)

| Structure (SMILES) | inhibition at 10 µM [%] |
| --- | --- |
| COc1nc(C)cc2c1C(=O)OCC2 [Ex. 22, 8-methoxy-6-methyl-3,4-dihydro-pyrano[3,4-c]pyridine-1-on] | 10 |
| Cc1cc2c(c(C)n1)C(=O)OCC2 [Ex. 26, 6,8-dimethyl-3,4-dihydro-pyrano[3,4-c]pyridine-1-on] | 6 |
| Cc1nc(-c2ccc(N(C)C)cc2)cc2c1C(=O)OCC2 [Ex. 100, 6-(4-(dimethylamino)phenyl)-8-methyl-3,4-dihydro-pyrano[3,4-c]pyridine-1-on] | 9 |
| Cc1ncc2c(c1-c1ccccc1)CCOC2=O [Ex. 62, 6-methyl-5-phenyl-3,4-dihydro-pyrano[3,4-c]pyridine-1-on] | 78 |
| Cc1cc2c(c(Oc3ccccc3)n1)C(=O)OCC2 [Ex. 50, 6-methyl-8-phenoxy-3,4-dihydro-pyrano[3,4-c]pyridine-1-on] | 9 |
| Cc1cc2c(c(-c3ccccc3)n1)C(=O)OCC2 [Ex. 46, 6-methyl-8-phenyl-3,4-dihydro-pyrano[3,4-c]pyridine-1-on] | 9 |
| Cc1nc(Cl)c2c(c1-c1ccccc1)CCOC2=O [Ex. 61, 8-chloro-6-methyl-5-phenyl-3,4-dihydro-pyrano[3,4-c]pyridine-1-on] | 100 |
| Cc1ccc(Nc2nc(C)cc3c2C(=O)OCC3)cc1 [Ex. 39, 6-methyl-8-p-tolylamino-3,4-dihydro-pyrano[3,4-c]pyridine-1-on] | 22 |
| Cc1cc2c(c(-c3ccc(Cl)cc3)n1)C(=O)OCC2 [Ex. 31, 8-(4-chloro-phenyl)-6-methyl-3,4-dihydro-pyrano[3,4-c]pyridine-1-on] | 100 |
| Cc1cc2c(c(Nc3ccc(Cl)cc3)n1)C(=O)OCC2 [Ex. 37, 8-(4-chloro-phenylamino)-6-methyl-3,4-dihydro-pyrano[3,4-c]pyridine-1-on] | 69 |
| Cc1cc2c(c(-c3ccco3)n1)C(=O)OCC2 [Ex. 27, 6-methyl-8-furan-2-yl-3,4-dihydro-pyrano[3,4-c]pyridine-1-on] | 43 |
| Cc1cc2c(c(N3CCN(C)CC3)n1)C(=O)OCC2 [Ex. 34, 6-methyl-8-(4-methyl-piperazine-1-yl)-3,4-dihydro-pyrano[3,4-c]pyridine-1-on] | 62 |

same assay, conditions: Mus musculus, RAW264.7; RAW 264.7, LPS 1 μg/mL; test conc. 100 μM; read-out: TNF-α Inhibition Rate (%)

| Structure (SMILES) | inhibition at 100 µM [%] |
| --- | --- |
| COc1nc(C)cc2c1C(=O)OCC2 [Ex. 22, 8-methoxy-6-methyl-3,4-dihydro-pyrano[3,4-c]pyridine-1-on] | 17 |
| Cc1cc2c(c(C)n1)C(=O)OCC2 [Ex. 26, 6,8-dimethyl-3,4-dihydro-pyrano[3,4-c]pyridine-1-on] | 17 |
| Cc1nc(-c2ccc(N(C)C)cc2)cc2c1C(=O)OCC2 [Ex. 100, 6-(4-(dimethylamino)phenyl)-8-methyl-3,4-dihydro-pyrano[3,4-c]pyridine-1-on] | 18 |
| Cc1ncc2c(c1-c1ccccc1)CCOC2=O [Ex. 62, 6-methyl-5-phenyl-3,4-dihydro-pyrano[3,4-c]pyridine-1-on] | 89 |
| Cc1cc2c(c(Oc3ccccc3)n1)C(=O)OCC2 [Ex. 50, 6-methyl-8-phenoxy-3,4-dihydro-pyrano[3,4-c]pyridine-1-on] | 19 |
| Cc1cc2c(c(-c3ccccc3)n1)C(=O)OCC2 [Ex. 46, 6-methyl-8-phenyl-3,4-dihydro-pyrano[3,4-c]pyridine-1-on] | 19 |
| Cc1nc(Cl)c2c(c1-c1ccccc1)CCOC2=O [Ex. 61, 8-chloro-6-methyl-5-phenyl-3,4-dihydro-pyrano[3,4-c]pyridine-1-on] | 100 |
| Cc1ccc(Nc2nc(C)cc3c2C(=O)OCC3)cc1 [Ex. 39, 6-methyl-8-p-tolylamino-3,4-dihydro-pyrano[3,4-c]pyridine-1-on] | 31 |
| Cc1cc2c(c(-c3ccc(Cl)cc3)n1)C(=O)OCC2 [Ex. 31, 8-(4-chloro-phenyl)-6-methyl-3,4-dihydro-pyrano[3,4-c]pyridine-1-on] | 100 |
| Cc1cc2c(c(Nc3ccc(Cl)cc3)n1)C(=O)OCC2 [Ex. 37, 8-(4-chloro-phenylamino)-6-methyl-3,4-dihydro-pyrano[3,4-c]pyridine-1-on] | 78 |
| Cc1cc2c(c(-c3ccco3)n1)C(=O)OCC2 [Ex. 27, 6-methyl-8-furan-2-yl-3,4-dihydro-pyrano[3,4-c]pyridine-1-on] | 68 |
| Cc1cc2c(c(N3CCN(C)CC3)n1)C(=O)OCC2 [Ex. 34, 6-methyl-8-(4-methyl-piperazine-1-yl)-3,4-dihydro-pyrano[3,4-c]pyridine-1-on] | 70 |

same assay, conditions: Mus musculus, RAW264.7; RAW 264.7, LPS 1 μg/mL; test conc. 1 mM; read-out: TNF-α Inhibition Rate (%)

| Structure (SMILES) | inhibition at 1000 µM [%] |
| --- | --- |
| COc1nc(C)cc2c1C(=O)OCC2 [Ex. 22, 8-methoxy-6-methyl-3,4-dihydro-pyrano[3,4-c]pyridine-1-on] | 30 |
| Cc1cc2c(c(C)n1)C(=O)OCC2 [Ex. 26, 6,8-dimethyl-3,4-dihydro-pyrano[3,4-c]pyridine-1-on] | 28 |
| Cc1nc(-c2ccc(N(C)C)cc2)cc2c1C(=O)OCC2 [Ex. 100, 6-(4-(dimethylamino)phenyl)-8-methyl-3,4-dihydro-pyrano[3,4-c]pyridine-1-on] | 29 |
| Cc1ncc2c(c1-c1ccccc1)CCOC2=O [Ex. 62, 6-methyl-5-phenyl-3,4-dihydro-pyrano[3,4-c]pyridine-1-on] | 100 |
| Cc1cc2c(c(Oc3ccccc3)n1)C(=O)OCC2 [Ex. 50, 6-methyl-8-phenoxy-3,4-dihydro-pyrano[3,4-c]pyridine-1-on] | 25 |
| Cc1cc2c(c(-c3ccccc3)n1)C(=O)OCC2 [Ex. 46, 6-methyl-8-phenyl-3,4-dihydro-pyrano[3,4-c]pyridine-1-on] | 29 |
| Cc1nc(Cl)c2c(c1-c1ccccc1)CCOC2=O [Ex. 61, 8-chloro-6-methyl-5-phenyl-3,4-dihydro-pyrano[3,4-c]pyridine-1-on] | 100 |
| Cc1ccc(Nc2nc(C)cc3c2C(=O)OCC3)cc1 [Ex. 39, 6-methyl-8-p-tolylamino-3,4-dihydro-pyrano[3,4-c]pyridine-1-on] | 40 |
| Cc1cc2c(c(-c3ccc(Cl)cc3)n1)C(=O)OCC2 [Ex. 31, 8-(4-chloro-phenyl)-6-methyl-3,4-dihydro-pyrano[3,4-c]pyridine-1-on] | 100 |
| Cc1cc2c(c(Nc3ccc(Cl)cc3)n1)C(=O)OCC2 [Ex. 37, 8-(4-chloro-phenylamino)-6-methyl-3,4-dihydro-pyrano[3,4-c]pyridine-1-on] | 89 |
| Cc1cc2c(c(-c3ccco3)n1)C(=O)OCC2 [Ex. 27, 6-methyl-8-furan-2-yl-3,4-dihydro-pyrano[3,4-c]pyridine-1-on] | 81 |
| Cc1cc2c(c(N3CCN(C)CC3)n1)C(=O)OCC2 [Ex. 34, 6-methyl-8-(4-methyl-piperazine-1-yl)-3,4-dihydro-pyrano[3,4-c]pyridine-1-on] | 80 |

same assay, conditions: RAW 264.7, LPS 1 μg/mL; test conc. 1 μM

| Structure (SMILES) | TNF-α Inhibition Rate (%) |
| --- | --- |
| O=C1NC(c2ccccc2)Cc2ccncc21 (centres unmarked) [Ex. 120b, 3-phenyl-3,4-dihydro-2H-[2,7]naphtyridine-1-on] | 26 |
| Cc1nc(-c2ccc3c(c2)OCO3)cc2c1C(=O)OCC2 [Ex. 99, 6-(benzo[d][1,3]dioxol-6-yl)-8methyl-3,4-dihydro-pyrano[3,4c]pyridine-1-on] | 9 |

same assay, conditions: RAW 264.7, LPS 1 μg/mL; test conc. 10 μM

| Structure (SMILES) | TNF-α Inhibition Rate (%) |
| --- | --- |
| O=C1NC(c2ccccc2)Cc2ccncc21 (centres unmarked) [Ex. 120b, 3-phenyl-3,4-dihydro-2H-[2,7]naphtyridine-1-on] | 30 |
| Cc1nc(-c2ccc3c(c2)OCO3)cc2c1C(=O)OCC2 [Ex. 99, 6-(benzo[d][1,3]dioxol-6-yl)-8methyl-3,4-dihydro-pyrano[3,4c]pyridine-1-on] | 19 |
| O=C1NCCc2ccncc21 [Ex. 116, 3,4-dihydro-2H-[2,7]naphtyridine-1-on] | 10 |

same assay, conditions: RAW 264.7, LPS 1 μg/mL; test conc. 100 μM

| Structure (SMILES) | TNF-α Inhibition Rate (%) |
| --- | --- |
| O=C1NC(c2ccccc2)Cc2ccncc21 (centres unmarked) [Ex. 120b, 3-phenyl-3,4-dihydro-2H-[2,7]naphtyridine-1-on] | 32 |
| Cc1nc(-c2ccc3c(c2)OCO3)cc2c1C(=O)OCC2 [Ex. 99, 6-(benzo[d][1,3]dioxol-6-yl)-8methyl-3,4-dihydro-pyrano[3,4c]pyridine-1-on] | 22 |
| O=C1NCCc2ccncc21 [Ex. 116, 3,4-dihydro-2H-[2,7]naphtyridine-1-on] | 18 |

same assay, conditions: RAW 264.7, LPS 1 μg/mL; test conc. 1 mM

| Structure (SMILES) | TNF-α Inhibition Rate (%) |
| --- | --- |
| O=C1NC(c2ccccc2)Cc2ccncc21 (centres unmarked) [Ex. 120b, 3-phenyl-3,4-dihydro-2H-[2,7]naphtyridine-1-on] | 42 |
| Cc1nc(-c2ccc3c(c2)OCO3)cc2c1C(=O)OCC2 [Ex. 99, 6-(benzo[d][1,3]dioxol-6-yl)-8methyl-3,4-dihydro-pyrano[3,4c]pyridine-1-on] | 35 |
| O=C1NCCc2ccncc21 [Ex. 116, 3,4-dihydro-2H-[2,7]naphtyridine-1-on] | 29 |

same assay, conditions: RAW 264.7; compared to the control compounds

| Structure (SMILES) | inhibitory activity in RAW 264.7 cell line on the production of TNF-α, in words |
| --- | --- |
| Cc1ncc2c(c1-c1ccccc1)CCOC2=O [Ex. 62, 6-methyl-5-phenyl-3,4-dihydro-pyrano[3,4-c]pyridine-1-on] | superiorities over to the control compounds |
| Cc1nc(Cl)c2c(c1-c1ccccc1)CCOC2=O [Ex. 61, 8-chloro-6-methyl-5-phenyl-3,4-dihydro-pyrano[3,4-c]pyridine-1-on] | superiorities over to the control compounds |
| Cc1cc2c(c(-c3ccc(Cl)cc3)n1)C(=O)OCC2 [Ex. 31, 8-(4-chloro-phenyl)-6-methyl-3,4-dihydro-pyrano[3,4-c]pyridine-1-on] | superiorities over to the control compounds |
